Measured values reported in US11866430B2, “Naphthyridinone compounds useful as T cell activators” (priority 2018, dated 2024).
Values joined by “and” are separate entries in the source; they are usually repeats but may differ in a detail not shown here. Equal values may be shown once. Read-outs that look alike come from different tables or passages of the source.

Assays:
[1] = test system: naïve human CD8 T cells; test: cells; settings: Homo sapiens, T-cell, read-out: HuCD8 INFG Normalized EC50, anti-CD3 plus anti-CD28 as baseline; 3 μM Example 40 co-stimulation as 100% activation
Protocol: Frozen naïve human CD8 T cells were thawed in ATM-V media, incubated for 2 h in 37° C., and counted. The 384-well tissue culture plate was coated overnight at 4° C. with 20 μl anti-human CD3 at 0.05 μg/mL in PBS, which was removed off the plate before 40,000 cells per 40 microliters CD8 T cells with 0.1 μg/mL soluble anti-human CD28 were added to each well. The compounds were transferred using an Echo liquid handler to the cell plate immediately after the cells were plated. After 20 h incubation at 37° C. incubator, 3 microliters per well supernatants transferred into a new 384-well white assay plate for cytokine measurement.
Interferon-γ (IFN-γ) was quantitated using the AlphaLISA kit (Cat #AL217) as described by the manufacturer manual (Perkin Elmer). The counts from each well were converted to IFN-γ concentration […].

[2] = molecular target: T1, human DGKζ (Homo sapiens (Human), UniProt Q13574); test: DGKζ LIPGLO assay (extruded liposome substrate); assay type: biochemical; settings: extruded liposome substrate; read-out: DGKζ LIPGLO IC50
T1 sequence (Q13574 other isoform, or with tags, fused parts or gaps): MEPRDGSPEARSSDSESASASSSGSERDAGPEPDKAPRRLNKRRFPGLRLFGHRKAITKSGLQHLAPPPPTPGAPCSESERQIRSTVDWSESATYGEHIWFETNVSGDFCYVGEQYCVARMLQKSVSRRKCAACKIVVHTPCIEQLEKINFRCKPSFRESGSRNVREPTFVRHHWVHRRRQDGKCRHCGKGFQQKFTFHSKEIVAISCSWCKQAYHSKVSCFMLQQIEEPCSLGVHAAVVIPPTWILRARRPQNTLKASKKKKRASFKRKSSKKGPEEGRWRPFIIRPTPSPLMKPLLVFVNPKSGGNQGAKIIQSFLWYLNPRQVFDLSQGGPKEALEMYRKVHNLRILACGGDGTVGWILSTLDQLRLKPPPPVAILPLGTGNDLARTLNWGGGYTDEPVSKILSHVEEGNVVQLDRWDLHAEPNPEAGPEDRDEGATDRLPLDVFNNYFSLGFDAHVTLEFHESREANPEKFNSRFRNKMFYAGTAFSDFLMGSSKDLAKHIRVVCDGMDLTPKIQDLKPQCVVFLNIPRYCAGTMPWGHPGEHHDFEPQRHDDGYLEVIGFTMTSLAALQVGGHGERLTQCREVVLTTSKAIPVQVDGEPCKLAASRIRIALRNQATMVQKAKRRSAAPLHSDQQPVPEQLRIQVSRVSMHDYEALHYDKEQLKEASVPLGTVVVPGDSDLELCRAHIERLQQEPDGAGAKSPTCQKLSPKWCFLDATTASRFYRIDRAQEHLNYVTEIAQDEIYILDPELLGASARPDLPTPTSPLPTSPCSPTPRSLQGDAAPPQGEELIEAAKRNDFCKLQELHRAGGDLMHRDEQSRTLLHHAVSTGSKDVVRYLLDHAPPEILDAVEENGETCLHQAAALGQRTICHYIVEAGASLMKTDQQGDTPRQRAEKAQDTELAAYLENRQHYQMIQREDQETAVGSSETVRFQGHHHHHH
Procedure, shortened: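 Sf9-derived DGKζ was premixed 10 min with PC/DAG/PS liposomes (100 nm extruded) in MOPS pH 7.5 buffer containing NaCl, MgCl2, CaCl2 and DTT.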

[3] = molecular target: T2, human DGKα (Homo sapiens (Human), UniProt P23743); test: DGKα LIPGLO assay (extruded liposome substrate); assay type: biochemical
T2 sequence (P23743 other isoform, or with tags, fused parts or gaps): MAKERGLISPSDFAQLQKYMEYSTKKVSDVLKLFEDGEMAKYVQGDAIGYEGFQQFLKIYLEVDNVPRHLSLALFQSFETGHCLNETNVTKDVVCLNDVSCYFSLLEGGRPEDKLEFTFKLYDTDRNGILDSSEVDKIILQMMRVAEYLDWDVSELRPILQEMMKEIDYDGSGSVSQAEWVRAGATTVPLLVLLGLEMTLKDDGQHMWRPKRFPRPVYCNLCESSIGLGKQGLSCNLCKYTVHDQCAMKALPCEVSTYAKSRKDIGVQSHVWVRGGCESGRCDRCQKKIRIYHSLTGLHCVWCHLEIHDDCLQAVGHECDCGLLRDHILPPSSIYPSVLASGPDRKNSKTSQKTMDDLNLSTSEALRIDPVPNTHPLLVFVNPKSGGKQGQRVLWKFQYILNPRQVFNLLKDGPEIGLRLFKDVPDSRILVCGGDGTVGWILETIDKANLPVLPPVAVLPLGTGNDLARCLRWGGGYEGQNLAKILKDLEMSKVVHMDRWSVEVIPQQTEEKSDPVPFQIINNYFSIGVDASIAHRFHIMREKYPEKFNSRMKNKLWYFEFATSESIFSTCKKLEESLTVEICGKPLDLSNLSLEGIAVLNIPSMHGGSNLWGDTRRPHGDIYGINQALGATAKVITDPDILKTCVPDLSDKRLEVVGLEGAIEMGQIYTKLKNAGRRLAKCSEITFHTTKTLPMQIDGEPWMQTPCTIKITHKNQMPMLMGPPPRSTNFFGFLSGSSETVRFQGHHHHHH
Procedure, shortened: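 Human full-length DGKα, His-tagged and produced in Sf9 cells, assayed at 20 nM (4× stock) on extruded liposomes of PS, 0.25 mM DAG and 2.75 mM PC, preincubated 10 min. Reaction started with 300 μM ATP (stock) and ran 1 h in MOPS pH 7.5/MgCl2/CaCl2/DTT buffer.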

[4] = test system: Jurkat AP1-luciferase Reporter; test: DGK AP1-Reporter Assay; assay type: cell-based
Protocol: The Jurkat AP1-luciferase Reporter was generated using the Cignal Lenti AP1 Reporter (luc) Kit from SABiosciences (CLS-011L).
The sample size was 30 nl per well; and one destination plate per source plate. The cell suspensions were prepared by transferring 40 mL cells (2×20 mL) to clean 50 mL conical tubes. The cells were concentrated by centrifugation (1200 rpm; 5 mins; ambient temperature). […] The cell plates were incubated for 20 minutes at 37° C., and 5% CO2.
During the incubation, anti-CD3 antibody (αCD3) solutions were prepared by mixing 3 μl αCD3 (1.3 mg/mL) with 10 mL medium [final conc=0.4 μg/mL]. Next, 1.5 μl αCD3 (1.3 mg/mL) was mixed with 0.5 mL medium [final conc=4 μg/mL]. After 20 minutes, 10 μl medium was added to all wells in column 1, wells A to M, and 10 μl αCD3 (4 μg/mL) per well was added in column 1, rows N to P for reference. Then using a multi-channel pipette, 10 μl αCD3 (0.4 μg/mL) per well was added. The αCD3 stimulated +/− compound-treated cells were incubated at 37° C., 5% CO2 for 6 hours.
During this incubation period. Steady-Glo (Promega E2520) reagent was slowly thawed on to ambient temperature. Next, 20 μl Steady-Glo reagent per well was added using a multi-drop Combi-dispenser. Bubbles were removed by centrifugation (2000 rpm, ambient temperature, 10 sees). The cells were incubated at room temperature for 5 minutes. Samples were characterized by measuring the Relative Light Units (RLU) with an using Envision Plate Reader Instrument on a luminescence protocol.

[5] = molecular target: T1, human DGKζ; test: DGKζ assay (detergent/lipid micelle substrate); assay type: biochemical; settings: detergent/lipid micelle substrate; read-out: DGKζ IC50
Procedure, shortened: (§1)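 Full-length human DGKζ (and DGKα), C-terminal His-tagged, Sf9-expressed, with phosphatidylserine/DAG micelles in 50 mM octyl glucoside; buffer 50 mM MOPS pH 7.5, 100 mM NaCl, 10 mM MgCl2, 1 μM CaCl2, 1 mM DTT.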

[6] = test system: pre-activated CD4 T cells and Raji cells; test: Raji CD4 T Cell IL2 Assay; assay type: cell-based
[7] = molecular target: T2, human DGKα; test: biochemical; settings: detergent/lipid micelle substrate; read-out: DGKα IC50
Procedure, shortened: as §1

[8] = Homo sapiens, Jurkat, read-out: API-Luciferase Reporter IC50, Table 3
[9] = Homo sapiens, Jurkat, read-out: DGKAP1 Lucif Reporter IC50, Table 4

SMILES	EC50 [1] [µM]	IC50 [2]	IC50 [3] [µM]	IC50 ([4]; read-out: API-Luciferase Reporter IC50, Table 3) [µM]	IC50 [5] [µM]	IC50 [6] [µM]	IC50 [7] [µM]	IC50 [4, 8] [µM]	IC50 ([6]; Homo sapiens, Raji) [µM]	IC50 [4, 9] [µM]
CCC(c1ccc(F)cc1)N1CCN(c2c(C#N)c(=O)n(C)c3ccc(C)nc23)CC1 (racemic) [Example 398, 4-{4-[1-(4-fluorophenyl)propyl]piperazin-1-yl}-1,6-dimethyl-2-oxo-1,2-dihydro-1,5-naphthyridine-3-carbonitrile]	1.21	> 240 µM and 49 µM								
Cn1c(=O)c(C#N)c(N2CCN(C(c3ccccc3)c3ccc(Cl)cc3)CC2)c2nc(Br)ccc21 (racemic) [Example 429, 6-bromo-4-{4-[(4-chlorophenyl)(phenyl)methyl]piperazin-1-yl}-1-methyl-2-oxo-1,2-dihydro-1,5-naphthyridine-3-carbonitrile]	0.08	9.4 µM	1.8							
Cn1c(=O)c(C#N)c(N2CCN(C(c3ccccc3)c3ccc(F)cc3)CC2)c2nc(Br)ccc21 (racemic) [Example 430, 6-bromo-4-{4-[(4-fluorophenyl)(phenyl)methyl]piperazin-1-yl}-1-methyl-2-oxo-1,2-dihydro-1,5-naphthyridine-3-carbonitrile]	0.3	3 µM	1.9							
COc1ccccc1C(c1ccc(F)cc1)N1CCN(c2c([N+](=O)[O-])c(=O)n(C)c3ccc(C#N)nc23)CC1 (single isomer, unassigned) [Example 20, 8-{4-[(4-fluorophenyl)(2-methoxyphenyl)methyl]piperazin-1-yl}-5-methyl-7-nitro-6-oxo-5,6-dihydro-1,5-naphthyridine-2-carbonitrile]				0.4	4.3	> 100	3.3			
Cn1c(=O)c([N+](=O)[O-])c(N2CCN(C(c3ccccc3)c3ccccc3O)CC2)c2nc(Br)ccc21 (single isomer, unassigned) [Example 78, 6-bromo-4-(4-((2-hydroxyphenyl)(phenyl)methyl)piperazin-1-yl)-1-methyl-3-nitro-1,5-naphthyridin-2(1H)-one]					> 240	> 100	12	0.14		
COc1ccc2c(n1)c(N1CCN(C(c3ccc(F)cc3)c3ccc(F)cc3OC)CC1)c(C#N)c(=O)n2C (single isomer, unassigned) [Example 413, 4-{4-[(4-fluoro-2-methoxyphenyl)(4-fluorophenyl)methyl]piperazin-1-yl}-6-methoxy-1-methyl-2-oxo-1,2-dihydro-1,5-naphthyridine-3-carbonitrile]	0.04	0.97 µM	3.3							
C#CCn1c(=O)c(C#N)c(N2CCN(Cc3c(C)cc(C)cc3O)CC2)c2nc(Br)ccc21 [Example 69, 6-bromo-4-(4-(2-hydroxy-4,6-dimethylbenzyl)piperazin-1-yl)-2-oxo-1-(prop-2-yn-1-yl)-1,2-dihydro-1,5-naphthyridine-3-carbonitrile]					13		1.3	0.51	> 100	
C#CCn1c(=O)c([N+](=O)[O-])c(N2CCN(C3CCc4ccc(OC)cc43)CC2)c2nc(C#N)ccc21 (centres unmarked) [Example 138, 8-(4-(6-methoxy-2,3-dihydro-1H-inden-1-yl)piperazin-1-yl)-7-nitro-6-oxo-5-(prop-2-yn-1-yl)-5,6-dihydro-1,5-naphthyridine-2-carbonitrile]					0.73		32	0.66	> 100	
COCCn1c(=O)c([N+](=O)[O-])c(N2CCN(C3CCc4ccc(OC)cc43)CC2)c2nc(C#N)ccc21 (centres unmarked) [Example 146, 8-(4-(6-methoxy-2,3-dihydro-1H-inden-1-yl)piperazin-1-yl)-5-(2-methoxyethyl)-7-nitro-6-oxo-5,6-dihydro-1,5-naphthyridine-2-carbonitrile]					36		> 240	1.87	> 100	
COc1cc(F)ccc1C(c1ccc(F)cc1OC)N1CCN(c2c(C#N)c(=O)n(C)c3ccc(C)nc23)CC1 [Example 251, 4-{4-[bis(4-fluoro-2-methoxyphenyl)methyl]piperazin-1-yl}-1,6-dimethyl-2-oxo-1,2-dihydro-1,5-naphthyridine-3-carbonitrile]	0.58	9 µM	> 240							
COCCC(C)N1CCN(c2c(C#N)c(=O)n(C)c3ccc(C)nc23)CC1 (centres unmarked) [Example 252, 4-[4-(4-methoxybutan-2-yl)piperazin-1-yl]-1,6-dimethyl-2-oxo-1,2-dihydro-1,5-naphthyridine-3-carbonitrile]	10	200 µM	> 240							
Cc1ccc2c(n1)c(N1CCN(C3CCOc4ccccc43)CC1)c(C#N)c(=O)n2C (centres unmarked) [Example 253, 4-[4-(3,4-dihydro-2H-1-benzopyran-4-yl)piperazin-1-yl]-1,6-dimethyl-2-oxo-1,2-dihydro-1,5-naphthyridine-3-carbonitrile]	2.51	7.4 µM	40							
Cn1c(=O)c(C#N)c(N2CCN(Cc3ccc(O)c(F)c3)CC2)c2nc(C#N)ccc21 [Example 363, 8-{4-[(3-fluoro-4-hydroxyphenyl)methyl]piperazin-1-yl}-5-methyl-6-oxo-5,6-dihydro-1,5-naphthyridine-2,7-dicarbonitrile]					> 240		0.15	10	> 100	
Cc1ccc(F)c(CN2CCN(c3c(C#N)c(=O)n(C)c4ccc(Cl)nc34)CC2)c1 [Example 364, 6-chloro-4-{4-[(2-fluoro-5-methylphenyl)methyl]piperazin-1-yl}-1-methyl-2-oxo-1,2-dihydro-1,5-naphthyridine-3-carbonitrile]					> 240		1.1	1.57	> 100	10
COc1cccc(Cl)c1CN1CCN(c2c(C#N)c(=O)n(C)c3ccc(Cl)nc23)CC1 [Example 365, 6-chloro-4-{4-[(2-chloro-6-methoxyphenyl)methyl]piperazin-1-yl}-1-methyl-2-oxo-1,2-dihydro-1,5-naphthyridine-3-carbonitrile]					190		3.5	2.22	> 100	10
Cn1c(=O)c(C#N)c(N2CCN(Cc3cccc4cc[nH]c34)CC2)c2nc(Br)ccc21 [Example 373, 6-bromo-4-{4-[(1H-indol-7-yl)methyl]piperazin-1-yl}-1-methyl-2-oxo-1,2-dihydro-1,5-naphthyridine-3-carbonitrile]					100		2.5	0.26	> 100	
Cn1c(=O)c(C#N)c(N2CCN(Cc3c(F)cccc3F)CC2)c2nc(Cl)ccc21 [Example 422, 6-chloro-4-{4-[(2,6-difluorophenyl)methyl]piperazin-1-yl}-1-methyl-2-oxo-1,2-dihydro-1,5-naphthyridine-3-carbonitrile]					> 240		1.4	3.49	> 100	
